# Results taken from patent EP1433789A1, “Pyrrolopyrazines and their use as selective apoptosis inducers” (Aponetics AG, priority 2002, dated 2004).
# How the values were obtained:
# Format in all cases: cell-based, human
# HeLa [1] = test: Hoechst 33342 nuclear staining (Table 3); set-up: key: 0 relating to no activity; 1 relating to weak activity comprising less than 50% of the cells; score 2 relating to strong activity comprising more than 50% of the cells
# Outline: (§1)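 Adherent cells (3-5×10^3, pre-spread 24 h) or suspension cells (8-10×10^3) treated with compounds at 10, 3, 1 and 0.3 µM for 24 or 48 h, then Hoechst 33342 stained for 30 min. Apoptotic nuclear morphology scored by fluorescence microscopy: 0 none, 1 weak (<50% cells), 2 strong (>50% cells).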
# KB = test: Hoechst 33342 nuclear staining (Table 3); set-up: key: 0 relating to no activity; 1 relating to weak activity comprising less than 50% of the cells; score 2 relating to strong activity comprising more than 50% of the cells
# Outline: as §1
# HeLa [2] = test: BrdU incorporation (proliferation); set-up: key: 0 for no activity; 1 for a moderate inhibition; 2 for strong inhibition of proliferation; settings: 48 h
# Method: (§2) Adherent cells are seeded out at 2 - 4*10^4 cells/well/ml in 24 well tissue culture plates 24 h prior to treatment. Suspension cells are seeded out at 2*10^5 cells/ml/well in 24 well plates. Compounds are added leading to final concentrations of 3 µM and 10 µM, respectively. Subsequently, BrdU (Molecular Probes #B-23151) at 10 µM final concentration is added and the plates are incubated for 48 h. After the incubation cells are processed according to standard procedures. The detection of the incorporated BrdU is done with the anti-bromodeoxyuridine Mab PRB-1, Alexa Fluor 660 conjugate (Molecular Probes #A-21306). The analysis is performed on a FACSCalibur™ by monitoring the fluorescence activity on FL3. The readout reflects DNA synthesis which is a hallmark for proliferation. The scores are defined the following: 0 for no activity, 1 for a moderate inhibition and 2 for strong inhibition of proliferation. Table 7 indicates inhibitory activities of several tested compounds on proliferation.
# Jurkat = test: BrdU incorporation (proliferation); set-up: key: 0 for no activity; 1 for a moderate inhibition; 2 for strong inhibition of proliferation; settings: 48 h
# Method: as §2
structure (smiles),measurement,setting,value
COc1cc2c(cc1OC)-c1c(Cl)c3nc4ccccc4nc3n1C(C)C2 (centres unmarked) [compound 12],Hoechst 33342 nuclear staining,"HeLa [1]; 24h, conc 0.3 (µM)",0
same,Hoechst 33342 nuclear staining,"HeLa [1]; 24h, conc 1 (µM)",0
same,Hoechst 33342 nuclear staining,"HeLa [1]; 24h, conc 3 (µM)",0
same,Hoechst 33342 nuclear staining,"HeLa [1]; 24h, conc 10 (µM)",0
same,Hoechst 33342 nuclear staining,"HeLa [1]; 48h, conc 0.3 (µM)",0
same,Hoechst 33342 nuclear staining,"HeLa [1]; 48h, conc 1 (µM)",1 (1 relating to weak activity comprising less than 50% of the cells)
same,Hoechst 33342 nuclear staining,"HeLa [1]; 48h, conc 3 (µM)",2 (score 2 relating to strong activity comprising more than 50% of the cells)
same,Hoechst 33342 nuclear staining,"HeLa [1]; 48h, conc 10 (µM)",2 (score 2 relating to strong activity comprising more than 50% of the cells)
same,Hoechst 33342 nuclear staining,"KB; 24h, conc 0.3 (µM)",0
same,Hoechst 33342 nuclear staining,"KB; 24h, conc 1 (µM)",0
same,Hoechst 33342 nuclear staining,"KB; 24h, conc 3 (µM)",0
same,Hoechst 33342 nuclear staining,"KB; 24h, conc 10 (µM)",2 (score 2 relating to strong activity comprising more than 50% of the cells)
same,Hoechst 33342 nuclear staining,"KB; 48h, conc 0.3 (µM)",0
same,Hoechst 33342 nuclear staining,"KB; 48h, conc 1 (µM)",0
same,Hoechst 33342 nuclear staining,"KB; 48h, conc 3 (µM)",2 (score 2 relating to strong activity comprising more than 50% of the cells)
same,Hoechst 33342 nuclear staining,"KB; 48h, conc 10 (µM)",2 (score 2 relating to strong activity comprising more than 50% of the cells)
same,BrdU incorporation (inhibition of proliferation),HeLa [2]; 3uM,1
same,BrdU incorporation (inhibition of proliferation),HeLa [2]; 10uM,1
same,BrdU incorporation (inhibition of proliferation),Jurkat; 3uM,2
same,BrdU incorporation (inhibition of proliferation),Jurkat; 10uM,2
